Assay results taken from paper PMC6461495 (ACS infectious diseases, 2019).

System: synchronous late-stage P. falciparum iRBC
Type: cell-based, Plasmodium falciparum CS2
Conditions: late-stage iRBC, 1, 2, 5, 10, 15 or 20 μM, 24 h post-treatment, flow cytometry

## FAM-βAla-ILGST*LKG*AQQTSAFLK (sidechain bridge or staple) [JDD scramble]
  effect on parasite viability at any concentration tested: no effect on parasite viability
